From publication PMC6973011, “Stafia‐1: a STAT5a‐Selective Inhibitor Developed via Docking‐Based Screening of in Silico O‐Phosphorylated Fragments” (Chemistry (Weinheim an Der Bergstrasse, Germany), 2019)
Changes are numbered by the printed parent chain.

Columns and labels:
[1] = biological target: T1, STAT5a (Homo sapiens, UniProt P42229); assay: Fluorescence polarization competitive binding assay, STAT5a
T1 construct: made in house
T1 sequence (P42229 1-794): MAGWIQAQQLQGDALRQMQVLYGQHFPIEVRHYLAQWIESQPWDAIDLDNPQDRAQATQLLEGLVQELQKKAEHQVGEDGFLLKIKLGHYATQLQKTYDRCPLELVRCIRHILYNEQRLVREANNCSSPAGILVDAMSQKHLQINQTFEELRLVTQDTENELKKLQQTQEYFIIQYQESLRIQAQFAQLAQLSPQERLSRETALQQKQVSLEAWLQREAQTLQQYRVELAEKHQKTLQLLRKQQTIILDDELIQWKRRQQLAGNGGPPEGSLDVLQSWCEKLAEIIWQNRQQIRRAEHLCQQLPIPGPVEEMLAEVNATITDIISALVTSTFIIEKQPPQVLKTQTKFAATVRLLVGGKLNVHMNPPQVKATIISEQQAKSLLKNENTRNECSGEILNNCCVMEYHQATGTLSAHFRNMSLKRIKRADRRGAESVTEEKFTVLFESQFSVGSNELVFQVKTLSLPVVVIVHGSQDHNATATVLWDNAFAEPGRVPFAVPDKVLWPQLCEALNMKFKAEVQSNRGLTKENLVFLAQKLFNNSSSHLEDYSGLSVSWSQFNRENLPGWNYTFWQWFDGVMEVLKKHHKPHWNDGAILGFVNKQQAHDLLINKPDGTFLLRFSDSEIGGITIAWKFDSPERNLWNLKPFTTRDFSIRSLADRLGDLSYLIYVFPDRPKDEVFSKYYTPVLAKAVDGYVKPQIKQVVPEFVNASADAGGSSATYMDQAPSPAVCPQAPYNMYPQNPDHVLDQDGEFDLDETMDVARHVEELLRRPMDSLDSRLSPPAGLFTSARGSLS

[2] = biological target: T2, STAT5b Arg566Trp (Homo sapiens, UniProt P51692, R566W); assay: Fluorescence polarization assay, point mutant STAT5b Arg566Trp; type: binding; settings: FP assay
T2 construct: made in house
T2 sequence (P51692 1-787 R566W): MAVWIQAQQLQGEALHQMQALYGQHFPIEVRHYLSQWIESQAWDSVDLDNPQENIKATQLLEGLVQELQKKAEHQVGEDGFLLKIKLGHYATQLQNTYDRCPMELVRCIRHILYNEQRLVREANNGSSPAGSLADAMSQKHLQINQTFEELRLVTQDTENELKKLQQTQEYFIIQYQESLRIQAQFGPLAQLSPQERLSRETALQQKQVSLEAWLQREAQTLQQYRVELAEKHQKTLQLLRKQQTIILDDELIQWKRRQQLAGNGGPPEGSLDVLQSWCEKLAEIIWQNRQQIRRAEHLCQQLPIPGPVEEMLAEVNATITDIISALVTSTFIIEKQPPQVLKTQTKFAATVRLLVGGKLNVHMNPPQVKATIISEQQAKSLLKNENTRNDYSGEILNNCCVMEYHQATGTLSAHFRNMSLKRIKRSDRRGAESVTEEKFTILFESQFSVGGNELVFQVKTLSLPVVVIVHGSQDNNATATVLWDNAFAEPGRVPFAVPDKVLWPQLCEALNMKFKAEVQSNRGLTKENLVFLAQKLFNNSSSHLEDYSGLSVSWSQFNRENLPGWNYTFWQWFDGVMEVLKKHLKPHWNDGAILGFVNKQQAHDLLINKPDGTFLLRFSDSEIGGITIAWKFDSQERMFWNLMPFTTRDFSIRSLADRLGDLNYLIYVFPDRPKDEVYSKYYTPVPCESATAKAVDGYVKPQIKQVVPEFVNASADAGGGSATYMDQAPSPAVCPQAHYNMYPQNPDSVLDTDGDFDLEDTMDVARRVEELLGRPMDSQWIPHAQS

[3] = biological target: T3, STAT5b Gln636Pro/Met639Asn/Phe640Leu/Met644Lys/Asn664Ser/Tyr679Phe (STAT5b‐6M) (Homo sapiens, UniProt P51692, F640L/M639N/M644K/N664S/Q636P/Y679F); assay: Fluorescence polarization assay, mutant STAT5b-6M; type: binding
T3 construct: made in house
T3 sequence (P51692 1-787 Q636P/M639N/F640L/M644K/N664S/Y679F): T2 sequence (P51692 1-787 R566W) with W566R, Q636P, M639N, F640L, M644K, N664S, Y679F

[4] = biological target: STAT3 (Homo sapiens, UniProt P40763); assay: Fluorescence polarization competitive binding assay, STAT3 SH2 domain; settings: read-out: STAT3 inhibition at 200 μM
Chain of STAT3 (P40763 whole entry, species assumed, the tested form may be a part): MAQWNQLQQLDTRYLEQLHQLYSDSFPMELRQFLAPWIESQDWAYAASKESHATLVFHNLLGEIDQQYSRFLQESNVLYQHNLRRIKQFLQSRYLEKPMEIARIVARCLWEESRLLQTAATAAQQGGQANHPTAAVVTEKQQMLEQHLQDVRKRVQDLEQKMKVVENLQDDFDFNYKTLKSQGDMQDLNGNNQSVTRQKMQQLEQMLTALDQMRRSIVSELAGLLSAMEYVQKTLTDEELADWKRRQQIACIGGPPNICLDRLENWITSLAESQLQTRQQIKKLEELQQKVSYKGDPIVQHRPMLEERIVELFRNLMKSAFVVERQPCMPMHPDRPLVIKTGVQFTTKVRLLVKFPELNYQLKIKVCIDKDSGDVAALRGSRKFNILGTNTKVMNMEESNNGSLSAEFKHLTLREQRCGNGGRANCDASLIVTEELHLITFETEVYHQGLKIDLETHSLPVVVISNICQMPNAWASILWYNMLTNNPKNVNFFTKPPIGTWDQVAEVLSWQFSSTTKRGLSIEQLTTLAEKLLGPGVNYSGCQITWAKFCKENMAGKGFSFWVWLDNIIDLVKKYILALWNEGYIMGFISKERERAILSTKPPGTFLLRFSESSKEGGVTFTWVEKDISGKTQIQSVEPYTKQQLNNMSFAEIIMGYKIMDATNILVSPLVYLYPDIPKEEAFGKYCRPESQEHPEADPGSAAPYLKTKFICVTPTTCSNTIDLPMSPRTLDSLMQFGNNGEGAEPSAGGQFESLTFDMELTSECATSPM
Text: Expression and purification of STAT1, STAT3, STAT4, STAT5a, STAT5b, STAT5a Trp566Arg, STAT5b Arg566Trp, STAT5b 6M, STAT5b 7M, STAT6, and Lck have previously been described.[4, 12] STAT proteins were purified over a single His-Bind resin (Millipore) column.
Wild-type and mutant STAT5a/b proteins used for activity analysis of 20 were purified over two successive His-Bind resin columns.[4, 13]
Fluorescence Polarization assays
Competitive binding assays based on fluorescence polarization were essentially carried out as described.[14] Unless stated otherwise, the following final concentration of proteins were used:
STAT4; 105 nM for STAT6; 30 nM for Lck. Final concentration of all peptides: 10 nM. Peptides used: 5-carboxyfluorescein-GpYLVLDKW for STAT5a/b and point mutants thereof; 5-carboxyfluorescein-GpYLPQTV-NH2 for STAT3; 5-carboxyfluorescein-GpYDKPHVL for STAT1; 5-carboxyfluorescein-GpYLPQNID-OH for STAT4; 5-carboxyfluorescein-
analysis of 20 against wild-type (wt) STAT5a/b and STAT5a/b point mutants, the following concentrations of double-purified protein were used, which reflect the approximate Kd values of the interactions with 5-carboxyfluorescein-GpYLVLDKW: STAT5a wt: 147 nM; STAT5b wt:
STAT5b 6M: 80 nM; STAT5b 7M: 282 nM. Assay buffer: 10 mM Tris (pH 8.0), 50 mM NaCl, 1 mM EDTA, 1 mM DTT, 0.1 % Nonidet P-40 substitute, and 2 % DMSO in water. A major part of the pipetting was done using a Biomek FXp sceening robot (Beckman-Coulter). Protein and test compounds were incubated for 1 h, followed by addition of the fluorescein-labeled peptide.
Fluorescence polarization was measured after another hour using an Infinite F500 plate reader (Tecan). IC50 values were converted to Ki-values using the published equation.[15]

COc1cc(-c2cc(OP(=O)(O)O)cc(-c3cc(OC)c(OC)c(OC)c3)c2)cc(OC)c1OC [Compound 20]
IC50 [1]: 22.2 ± 3.6 µM | Ki [1]: 10.9 ± 1.8 µM | selectivity for STAT5a over STAT5b ([1]; FP assays, STAT5a vs STAT5b): at least 9 fold | inhibition at 200 µM [2]: 43 ± 7% | inhibition at 200 µM ([3]; FP assay, 200 µM): 46 ± 8% | activity against STAT5b-6M lower than activity against wild-type STAT5a ([3]; FP assays): approximately 10 fold | inhibition at 200 µM [4]: 27 ± 2%
